In general, IC50 refers to the concentration that gives 50% inhibition.

This assay deals with T1, autotaxin (ATX) (Homo sapiens, UniProt Q13822).
T1 construct: conditioned medium from the human melanoma cell line, MDA-MB-4355, which endogenously expresses autotaxin; host or cells: MDA-MB-435S human melanoma cells; serum-free conditioned medium, concentrated 20-fold
As to the kind of experiment: Native Autotaxin Choline Release Assay. The assay is classed as biochemical. The conditions noted are these: autotaxin in conditioned medium from human melanoma cell line; choline released from LPC; read-out: MDA-MB-435S Assay IC50. The essentials: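 Native ATX from conditioned serum-free, phenol-red-free DMEM of confluent cells cultured 48 h; LPC as substrate. Released choline detected with choline oxidase/peroxidase/4-aminoantipyrine colour mix in 50 mM Tris pH 8, 10 min at 37 °C, absorbance 555 nm; choline quantified against standard curve, equated to LPA formed.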
Regarding `COc1cncc(-n2c(C)c(Sc3cccc(C(=O)O)c3)c3ccc(Cl)cc32)c1` [Compound 1-37, 3-[6-Chloro-1-(5-methoxy-pyridin-3-yl)-2-methyl-1H-indol-3-ylsulfanyl]-benzoic acid], the IC50 was below 300 nM.

With `Cc1c(Sc2cccc(C(=O)NCCN(C)C)c2)c2ccc(Br)cc2n1Cc1ccccc1` [Compound 2-11, 3-(1-Benzyl-6-bromo-2-methyl-1H-indol-3-ylsulfanyl)-N-(2-dimethylamino-ethyl)-benzamide], the IC50 was above 1000 nM.

As to `Cc1c(Sc2cccc(B(O)O)c2)c2ccc(Cl)cc2n1-c1cccnc1` [Compound 2-12, 3-(6-Chloro-2-methyl-1-pyridin-3-yl-1H-indol-3-ylsulfanyl)-phenylboronic acid], the concentration for half-maximal inhibition (IC50) is above 1000 nM.

Regarding `Cc1c(Sc2cccc(C(=O)O)c2)c2ccc(Cl)c(F)c2n1-c1cnn(CC2CC2)c1` [Compound 3-34, 3-[6-Chloro-1-(1-cyclopropylmethyl-1H-pyrazol-4-yl)-7-fluoro-2-methyl-1H-indol-3-ylsulfanyl]-benzoic acid], the half-inhibitory concentration (IC50) is below 300 nM.

For `CCn1cc(-n2c(C)c(Sc3cccc(CC(=O)O)c3)c3ccc(Cl)c(F)c32)cn1` [Compound 3-28, {3-[6-Chloro-1-(1-ethyl-1H-pyrazol-4-yl)-7-fluoro-2-methyl-1H-indol-3-ylsulfanyl]-phenyl}-acetic acid], the half-inhibitory concentration (IC50) was below 300 nM.

Consider `Cc1c(Sc2cccc(C(=O)O)c2)c2ccc(Cl)cc2n1-c1cnn(Cc2ccccc2)c1` [Compound 1-59, 3-[1-(1-Benzyl-1H-pyrazol-4-yl)-6-chloro-2-methyl-1H-indol-3-ylsulfanyl]-benzoic acid], for which the IC50 is below 300 nM.

For `CCc1cncc(-n2c(C)c(Sc3cccc(C(=O)O)c3)c3ccc(Cl)c(F)c32)c1` [Compound 3-25, 3-[6-Chloro-1-(5-ethyl-pyridin-3-yl)-7-fluoro-2-methyl-1H-indol-3-ylsulfanyl]-benzoic acid], the IC50 is below 300 nM.

Take `CCn1cc(-n2c(C)c(Sc3cccc(C(=O)NS(=O)(=O)c4ccccc4)c3)c3ccc(Cl)c(F)c32)cn1` [Compound 3-42, N-{3-[6-Chloro-1-(1-ethyl-1H-pyrazol-4-yl)-7-fluoro-2-methyl-1H-indol-3-ylsulfanyl]-benzoyl}-benzenesulfonamide]: the half-inhibitory concentration (IC50) was below 300 nM.

As for `Cc1[nH]c2cccc(Cl)c2c1Sc1cccc(B(O)O)c1` [Compound 3-9, 3-(4-Chloro-2-methyl-1H-indol-3-ylsulfanyl)-phenylboronic acid], the 50% inhibitory concentration (IC50) was above 1000 nM.

For the compound `CCn1cc(-n2c(C)c(Sc3cc(F)cc(C(=O)O)c3)c3ccc(Cl)c(F)c32)cn1` [Compound 4-2, 3-[6-Chloro-1-(1-ethyl-1H-pyrazol-4-yl)-7-fluoro-2-methyl-1H-indol-3-ylsulfanyl]-5-fluoro-benzoic acid], the IC50 was below 300 nM.

For `Cc1c(Sc2cccc(Cc3nn[nH]n3)c2)c2ccc(Cl)cc2n1Cc1ccccc1` [Compound 2-8, 1-Benzyl-6-chloro-2-methyl-3-[3-(2H-tetrazol-5-ylmethyl)-phenylsulfanyl]-1H-indole], the IC50 was above 1000 nM.

`Cc1c(Sc2cccc(CC(=O)O)c2)c2ccccc2n1C` [Compound 1-4, [3-(1,2-Dimethyl-1H-indol-3-ylsulfanyl)-phenyl]-acetic acid]: the IC50 is above 1000 nM.

`Cc1c(Sc2cccc(C(=O)O)c2)c2ccc(Cl)cc2n1Cc1cccnc1` [Compound 1-21, 3-(6-Chloro-2-methyl-1-pyridin-3-ylmethyl-1H-indol-3-ylsulfanyl)-benzoic acid]: the half-inhibitory concentration (IC50) is below 300 nM.

For the compound `Cc1c(Sc2cc(F)cc(C(=O)O)c2)c2ccc(Cl)c(F)c2n1-c1cnn(C(C)C)c1` [Compound 4-6, 3-[6-Chloro-7-fluoro-1-(1-isopropyl-1H-pyrazol-4-yl)-2-methyl-1H-indol-3-ylsulfanyl]-5-fluoro-benzoic acid], the 50% inhibitory concentration (IC50) was below 300 nM.

As to `CCn1cc(-n2c(C)c(Sc3cccc(C(=O)O)c3F)c3c(F)cc(Cl)cc32)cn1` [Compound 4-11, 3-[6-Chloro-1-(1-ethyl-1H-pyrazol-4-yl)-4-fluoro-2-methyl-1H-indol-3-ylsulfanyl]-2-fluoro-benzoic acid], the concentration for half-maximal inhibition (IC50) is below 300 nM.

As for `Cc1c(Sc2cccc(C(=O)O)c2)c2ccc(Cl)cc2n1-c1cccnc1` [Compound 1-30, 3-(6-Chloro-2-methyl-1-pyridin-3-yl-1H-indol-3-ylsulfanyl)-benzoic acid], the IC50 was below 300 nM.

For the compound `Cc1cncc(-n2c(C)c(Sc3cccc(C(=O)O)c3F)c3ccc(Cl)cc32)c1` [Compound 1-66, 3-[6-Chloro-2-methyl-1-(5-methyl-pyridin-3-yl)-1H-indol-3-ylsulfanyl]-2-fluoro-benzoic acid], the IC50 was below 300 nM.

In the case of `CCn1ccc(-n2c(C)c(Sc3cccc(C(=O)O)c3)c3ccc(Cl)c(F)c32)n1` [Compound 3-58, 3-[6-Chloro-1-(1-ethyl-1H-pyrazol-3-yl)-7-fluoro-2-methyl-1H-indol-3-ylsulfanyl]-benzoic acid], the concentration for half-maximal inhibition (IC50) fell in the range of 300 to 1000 nM.

For `Cc1c(Sc2ccccc2CC(=O)O)c2ccc(Cl)cc2n1C` [Compound 3-10, [2-(6-Chloro-1,2-dimethyl-1H-indol-3-ylsulfanyl)-phenyl]-acetic acid], the half-maximal inhibitory concentration (IC50) was above 1000 nM.

On to `Cc1c(Sc2cccc(CCC(=O)O)c2)c2ccc(Cl)cc2n1Cc1ccccc1` [Compound 1-17, 3-[3-(1-Benzyl-6-chloro-2-methyl-1H-indol-3-ylsulfanyl)-phenyl]-propionic acid], for which the half-inhibitory concentration (IC50) is above 1000 nM.

For `O=C(O)c1cccc(Sc2cn(Cc3ccccc3)c3cc(Cl)ccc23)c1` [Compound 3-17, 3-(1-Benzyl-6-chloro-1H-indol-3-ylsulfanyl)-benzoic acid], the IC50 was 300 to 1000 nM.

With `Cc1[nH]c2ccc(Cl)cc2c1Sc1cccc(CC(=O)O)c1` [Compound 3-3, [3-(5-Chloro-2-methyl-1H-indol-3-ylsulfanyl)-phenyl]-acetic acid], the concentration for half-maximal inhibition (IC50) is above 1000 nM.

As to `CCCn1cc(-n2c(C)c(Sc3cccc(C(=O)NS(=O)(=O)c4ccccc4)c3F)c3ccc(Cl)c(F)c32)cn1` [Compound 4-8, N-{3-[6-Chloro-1-(1-propyl-1H-pyrazol-4-yl)-7-fluoro-2-methyl-1H-indol-3-ylsulfanyl]-2-fluoro-benzoyl}-benzenesulfonamide], the IC50 is below 300 nM.

Consider `Cc1c(Oc2cccc(Cc3nn[nH]n3)c2)c2ccc(Cl)cc2n1Cc1ccccc1` [Compound 2-6, 1-Benzyl-6-chloro-2-methyl-3-[3-(2H-tetrazol-5-ylmethyl)-phenoxy]-1H-indole], for which the IC50 was above 1000 nM.

Consider `CCn1cc(-n2c(C)c(Sc3cccc(C(=O)O)c3)c3cc(F)c(Cl)cc32)cn1` [Compound 3-26, 3-[6-Chloro-1-(1-ethyl-1H-pyrazol-4-yl)-5-fluoro-2-methyl-1H-indol-3-ylsulfanyl]-benzoic acid], for which the 50% inhibitory concentration (IC50) is below 300 nM.

As to `CCn1cc(-n2c(C)c(Sc3ccc(C)c(C(=O)O)c3)c3ccc(Cl)c(F)c32)cn1` [Compound 4-9, 5-[6-Chloro-1-(1-ethyl-1H-pyrazol-4-yl)-7-fluoro-2-methyl-1H-indol-3-ylsulfanyl]-2-methyl-benzoic acid], the half-maximal inhibitory concentration (IC50) was below 300 nM.

In the case of `COc1ccc(C(=O)O)cc1Sc1c(C)n(-c2cccnc2)c2cc(Cl)ccc12` [Compound 1-40, 3-(6-Chloro-2-methyl-1-pyridin-3-yl-1H-indol-3-ylsulfanyl)-4-methoxy-benzoic acid], the IC50 was above 1000 nM.

`CCCn1cc(-n2c(C)c(Sc3ccc(C(F)(F)F)c(CC(=O)O)c3)c3ccc(Cl)c(F)c32)cn1` [Compound 4-14, {5-[6-Chloro-7-fluoro-2-methyl-1-(1-propyl-1H-pyrazol-4-yl)-1H-indol-3-ylsulfanyl]-2-trifluoromethyl-phenyl}-acetic acid]: the IC50 is below 300 nM.

Consider `Cc1c(Sc2cccc(C(=O)O)c2)c2ccc(Cl)cc2n1-c1ccc(C(F)(F)F)nc1` [Compound 1-32, 3-[6-Chloro-2-methyl-1-(6-trifluoromethyl-pyridin-3-yl)-1H-indol-3-ylsulfanyl]-benzoic acid], for which the IC50 was 300 to 1000 nM.

In the case of `COCCn1c(C)c(Sc2cccc(CC(=O)O)c2)c2ccc(Cl)cc21` [Compound 1-8, {3-[6-Chloro-1-(2-methoxy-ethyl)-2-methyl-1H-indol-3-ylsulfanyl]-phenyl}-acetic acid], the IC50 was in the range of 300 to 1000 nM.

In the case of `CCn1cc(-n2c(C)c(Sc3cccc(C(=O)O)c3)c3ccc(C#N)cc32)cn1` [Compound 3-31, 3-[6-Cyano-1-(1-ethyl-1H-pyrazol-4-yl)-2-methyl-1H-indol-3-ylsulfanyl]-benzoic acid], the half-inhibitory concentration (IC50) was below 300 nM.

As to `Cc1c(Sc2cccc(C(=O)O)c2)c2ccc(Cl)cc2n1Cc1ccc2ccccc2c1` [Compound 1-20, 3-(6-Chloro-2-methyl-1-naphthalen-2-ylmethyl-1H-indol-3-ylsulfanyl)-benzoic acid], the IC50 is above 1000 nM.

With `CCCn1cc(-n2c(C)c(Sc3cccc(CC(=O)NS(=O)(=O)C4CC4)c3)c3ccc(Cl)cc32)cn1` [Compound 3-54, cyclopropanesulfonic acid (2-{3-[6-chloro-2-methyl-1-(1-propyl-1H-pyrazol-4-yl)-1H-indol-3-ylsulfanyl]-phenyl}-acetyl)-amide], the 50% inhibitory concentration (IC50) is below 300 nM.

Consider `Cc1ccc(-n2c(C)c(Sc3cccc(C(=O)O)c3)c3ccc(Cl)cc32)cn1` [Compound 1-34, 3-[6-Chloro-2-methyl-1-(6-methyl-pyridin-3-yl)-1H-indol-3-ylsulfanyl]-benzoic acid], for which the IC50 is below 300 nM.

As to `Cc1c(Sc2cccc(C(=O)O)c2)c2ccc(Br)cc2n1Cc1ccccc1` [Compound 1-10, 3-(1-Benzyl-6-bromo-2-methyl-1H-indol-3-ylsulfanyl)-benzoic acid], the IC50 fell in the range of 300 to 1000 nM.

With `CCc1c(Sc2cccc(C(=O)O)c2)c2ccc(Cl)cc2n1Cc1ccccc1` [Compound 3-15, 3-(1-Benzyl-6-chloro-2-ethyl-1H-indol-3-ylsulfanyl)-benzoic acid], the IC50 was above 1000 nM.

Values taken from patent US9000025B2, “Autotaxin inhibitors and uses thereof” (Amira Pharmaceuticals, Inc., priority 2010, dated 2015).
